Reference: patent publication US20250345350A1, “TREATING PAIN ASSOCIATED WITH CENTRAL SENSITIZATION” (Medicon Pharmaceuticals, Inc., priority 2022, published 2025)
Values joined by “and” are separate entries in the source; they are usually repeats but may differ in a detail not shown here. Identical values can stand only once.

Tests used:
[1] = tested on: STZ-induced central sensitization in Sprague-Dawley rats; assay: PWT (von Frey), streptozotocin rat model of central sensitization (Example 4); assay type: in vivo
Protocol: Sprague-Dawley rats were fasted for 4-6 hours before being injected intraperitoneally with 45 mg/kg STZ. This was performed for all experimental groups, except the naive group. In order to prevent hypoglycaemic death, rats received 10% sucrose water as the sole water source for the first 48 hours after injection. In order to ensure only those rats considered diabetic (i.e., having non-fasting plasma glucose levels of >250 mg/dL) were included in the study, blood glucose was measured at 72 hours after the STZ injection.
Four weeks after STZ injection, the rats were randomised into treatment groups. This delay between STZ injection and treatment allows the establishment of chronic pain (allodynia) associated with central sensitization. […] 5% lidocaine cream (positive control) was applied only once to both hind paws of the rats 30 minutes before measurement of PWT.
The rats were split into 8 study groups, with those in the experimental groups (1-4) having an average body weight of about 225 g, and those in the control groups (5-8) having an average body weight of about 335 g, as follows: • 1. Group 1: naive rats (n=5) • 2. Group 2: STZ only (n=6) • 3. Group 3: STZ plus vehicle (n=6) • 4. […] Group 5: STZ plus oral vehicle (n=8) • 6. Group 6: STZ plus 0.7% sulindac hydrogel (n=7) • 7. Group 7: STZ plus 5% lidocaine cream (n=8) • 8.

[2] = tested on: NTG-induced migraine in mice; assay: PWT (von Frey), NTG-induced migraine mouse model, intraperitoneal clinical compounds (Example 15); details: 30 min after single i.p. dose given 30 min after NTG; topiramate 30 mg/kg, sumatriptan 600 μg/kg, propranolol 10 mg/kg, gabapentin 30 mg/kg
Protocol: In line with the earlier Examples, migraine was induced using 0.4 mg of NTG administered sublingually in the form of a finely crushed 0.4 mg NTG tablet (Greenstone Brand).
A single intraperitoneal dose of topiramate (30 mg/kg), sumatriptan (600 μg/kg), propranolol (10 mg/kg), gabapentin (30 mg/kg) or vehicle was administered 30 min after the induction of migraine, at the indicated doses.
Group 1: baseline (i.e, no NTG treatment) • 2. Group 2: vehicle • 3. Group 3: topimarate • 4. Group 4: sumatriptan • 5. Group 5: propanolol • 6. Group 6: gabapentin
Mechanical allodynia was determined using the method of von Frey filaments in line with that performed in the earlier Examples. The PWT test was performed 30 minutes after compound or vehicle control administration. The mechanical threshold, expressed as g, indicates the force of the von Frey filament to which the animal reacted.

[3] = tested on: NTG-induced chronic migraine in mice; assay: PWT (von Frey), NTG-induced chronic migraine model, oral (Example 16)
Protocol: In particular, mice receive sublingual NTG 0.4 mg in the form of a finely crushed 0.4 mg NTG tablet (Greenstone Brand) every two days, receiving a total of five doses. For control mice, an NTG placebo (Practi-Nitroglycerin Sublingual 0.4 mg Simulated Medication tablet) was administered in the same way.
Group 1: placebo NTG (i.e, no NTG treatment, n=8) • 2. Group 2: NTG (n=8) • 3. Group 3: NTG+vehicle (n=8) • 4. […] Group 5: NTG+sulindac (n=8)
Mechanical allodynia was determined using von Frey filaments in line with that performed in the earlier Examples. The PWT test was performed prior to NTG (or placebo NTG) administration to determine baseline values, as indicated. […] The mechanical threshold, expressed as g, indicates the force of the von Frey filament to which the animal reacted.

[4] = tested on: NTG-induced migraine in C57BL/6J mice; assay: PWT (von Frey), NTG-induced migraine mouse model, topical (Example 13); details: confirmation of NTG model
Protocol: Specifically, instead of the intraperitoneal injection of NTG, a finely crushed 0.4 mg NTG tablet (Greenstone Brand) was administered sublingually. As a control, a Practi-Nitroglycerin Sublingual 0.4 mg Simulated Medication tablet was used.
For determining mechanical allodynia, pain threshold responses were measured using the well-established method of von Frey filaments in line with that performed in the earlier Examples.
The PWT test, assessing mechanical allodynia, was performed 30 minutes after treatment. The mechanical threshold, expressed as g, indicates the force of the von Frey filament to which the animal reacted.

[5] = tested on: paclitaxel-induced pain associated with central sensitization in C57BL/6J mice; assay: Mechanical allodynia (von Frey), paclitaxel-induced pain, topical PS 8% (Example 2); assay type: in vivo, mouse
Source text: (§1) Food and water were available ad libitum.
(§2) Paw withdrawn, licking or shaking were considered positive responses.

[6] = tested on: paclitaxel-induced central sensitization in C57/BL/6J mice; assay: Cold allodynia (acetone test), paclitaxel model (Example 3); assay type: in vivo, mouse; details: after paclitaxel treatment
Protocol: To determine the outcome of treatment, assessment of mechanical allodynia was performed. […] Both methods of assessing allodynia are described in Toma W, et al. Neuropharmacology 2017; 117:305-15. Mechanical and cold allodynia are determined at least one day apart in the same animal.
The acetone test was used. Briefly, acetone was applied onto the plantar surface of each hind paw. The time each mouse spent licking, lifting, and/or shaking the hind paw recorded over 60 seconds was the score for cold allodynia. Measurements were performed on day-8 (before the first paclitaxel injection), the day of starting treatment (day 0) and then on day 15.

[7] = tested on: paclitaxel-induced CIPN in C57BL/6J mice; assay: PWT (von Frey), mouse model of CIPN, oral administration (Example 5); assay type: in vivo; details: day 7; oral gavage three times a day for 7 days, PS 50 mg/kg, sulindac 33 mg/kg
Source text: CIPN was induced in mice with chemotherapeutic agents using established protocols (Carozzi et al, 2010; Currie et al, 2019; Eldridge et al, 2020). […] This dosing regimen of paclitaxel produces pain associated with CIPN with time courses that are similar to those of pain after paclitaxel administration in cancer patients.
Group 1: naive mice (i.e. no paclitaxel, n=8) • 2. Group 2: paclitaxel only (n=8) • 3. Group 3: paclitaxel plus vehicle (n=8) • 4. […] Group 5: paclitaxel plus sulindac (n=8)
The PWT test was performed on day 7.

[8] = tested on: paclitaxel-induced central sensitization in C57/BL/6J mice
Protocol: Regarding the treatment with lidocaine: 5% lidocaine cream (a positive control) was applied once to both hind paws of the mice 30 minutes before measurement of PWT.
Briefly, for mechanical allodynia, pain threshold responses were measured using the well-established method of von Frey filaments in line with that performed in the earlier Examples. The PWT test was performed on day-8 (before the first dose of paclitaxel), the day of starting treatment (day 0, at which central sensitization was fully established) and day 14 (treatment continued until day 15). The mechanical threshold, expressed as g, indicates the force of the von Frey filament to which the animal reacted.

[9] = tested on: paclitaxel-induced central sensitization in C57/BL mice; assay: Paw withdrawal threshold (von Frey), paclitaxel model, topical PS (Example 1); details: day 10, about 30 min after last application; PS 8% hydrogel topically to both hind paws 3 times a day for 10 days
[10] = PS and metabolites in proximal and distal half of the sciatic nerve (Example 25); assay type: in vivo, mouse; details: mouse, in vivo
Protocol: In a separate experiment we studied 8 mice with paclitaxel-induced PN treated with PS 8% ointment 3×/d for 2 wks. Mice were euthanized as above 30 minutes after the last dose of PS. From these mice we harvested both sciatic nerves dividing each into proximal and distal halves, and combined the corresponding halves of every two animals for assay of drug levels.

[11] = tested on: NTG-induced chronic migraine in mice; assay: PWT (von Frey), NTG-induced chronic migraine model, intraperitoneal topiramate and sumatriptan (Example 17); assay type: in vivo, mouse
Protocol: The NTG-induced chronic migraine model was used as described previously.
sumatriptan (600 μg/kg), or vehicle was administered.
. Group 1: NTG+vehicle (n=8) • 2. Group 2: NTG+topiramate (n=8) • 3. Group 3: NTG+sumatriptan (n=8)

[12] = tested on: oxaliplatin-induced pain associated with central sensitization in C57BL/6J mice; assay: Mechanical allodynia (von Frey), oxaliplatin-induced pain, topical PS 8% (Example 2); assay type: in vivo, mouse; details: day 0, in the two study groups respectively; cumulative 30 mg/kg i.p.
Source text: as §1
(§3) Protocol for the Treatment of Established Pain Associated with Central Sensitization with PS
as §2

[13] = tested on: chronic constriction injury-induced peripheral neuropathy in C57BL/6J mice; assay: PWT (von Frey), chronic constriction injury model of PTPN, topical (Example 7); details: day 14, PS 5% gel or sulindac 0.7% gel on left paw three times a day for 14 days, pregabalin once by oral gavage 1 h before
Protocol: Group 1: ligation only (i.e, surgical control with no treatment, n=5-7) • 2. Group 2: vehicle control (n=5-7) • 3. […] Group 4: 0.7% sulindac (n=5-7) • 5.
Briefly, for determining mechanical allodynia, pain threshold responses were measured using the well-established method of von Frey filaments in line with that performed in the earlier Examples. The PWT test was performed on day 14. The mechanical threshold, expressed as g, indicates the force of the von Frey filament to which the animal reacted.

[14] = tested on: vincristine-induced pain associated with central sensitization in C57BL/6J mice; assay: Mechanical allodynia (von Frey), vincristine-induced pain, topical PS 8% (Example 2); assay type: in vivo, mouse
Source text: as §1, §3, §2

[15] = Baseline, prior to NTG administration
[16] = Post-compound administration, 30 min after single i.p. dose, topiramate 30 mg/kg, sumatriptan 600 μg/kg

CN(N=O)C(=O)N[C@H]1C(O)O[C@H](CO)[C@@H](O)[C@@H]1O (mixture of isomers) [STZ, streptozotocin]
PWT, gm Mean ± SEM ([1]; week 7, PS 8% hydrogel to both hind paws 3 times a day for 3 weeks from week 4 after STZ): 15.7 ± 0.84 gm

NCC1(CC(=O)O)CCCCC1 [Gabapentin, gabapentin]
PWT, g Mean ± SEM [2]: 1.44 ± 0.25 g

O=[N+]([O-])OCC(CO[N+](=O)[O-])O[N+](=O)[O-] [NTG, nitroglycerin]
PWT, g Mean ± SEM [3, 15]: 1.95 ± 0.18 g
PWT, g Mean ± SEM ([3]; Day 11, orally once a day for 11 days concurrent with NTG, PS 50 mg/kg, sulindac 33 mg/kg): 0.66 ± 0.11 g
PWT, g 30 min Mean ± SEM ([4]; 30 min after sublingual NTG 0.4 mg): 0.70 ± 0.12 g
PWT, g 60 min Mean ± SEM ([4]; 60 min after sublingual NTG 0.4 mg): 0.51 ± 0.05 g

CC(=O)O[C@H]1C(=O)[C@@]2(C)[C@H]([C@H](OC(=O)c3ccccc3)[C@]3(O)C[C@H](OC(=O)[C@H](O)[C@@H](NC(=O)c4ccccc4)c4ccccc4)C(C)=C1C3(C)C)[C@]1(OC(C)=O)CO[C@@H]1C[C@@H]2O [Paclitaxel, paclitaxel, reference compound]
mechanical allodynia score, mean±SEM ([5]; day 0 (initiation of treatment), paclitaxel-induced pain): 0.78 ± 0.08 g
mechanical allodynia score, mean±SEM ([5]; day 16, PS 8% ointment 3x/day to hind paws): 0.57 ± 0.05 g
reduction of mechanical allodynia scores by paclitaxel ([5]; paclitaxel administered over 12 days, cumulative 32 mg/kg i.p.): ~85%
cold allodynia score (acetone test) [6]: 7.1 ± 0.4 s
PWT, g Mean ± SEM [7]: 0.53 ± 0.03 g
mechanical allodynia score, mean±SEM ([8]; day 0, after paclitaxel, central sensitization fully established): 0.55 ± 0.05 g
PWT, % baseline Mean ± SEM [9]: 86.75 ± 5.42 % baseline

CC(C)NCC(O)COc1cccc2ccccc12 (stereo not drawn) [Propanolol, propranolol]
PWT, g Mean ± SEM [2]: 1.37 ± 0.14 g

CC1=C(CC(=O)O)c2cc(F)ccc2/C1=C\c1ccc(S(C)(=O)=O)cc1 [Sulindac sulfone, sulindac sulfone]
Distal half of sciatic nerve, mean ± SEM [10]: 0.9 ± 0.2 µM
Fold difference (distal vs proximal) [10]: 4.5 fold
Proximal half of sciatic nerve, μM, mean ± SEM [10]: 0.2 ± 0.08 µM

CNS(=O)(=O)Cc1ccc2[nH]cc(CCN(C)C)c2c1 [Sumatriptan, sumatriptan]
PWT, g Mean ± SEM [11, 15]: 1.90 ± 0.06 g
PWT, g Mean ± SEM ([11]; Day 12 (pre-treatment)): 0.57 ± 0.02 g
PWT, g Mean ± SEM [11, 16]: 1.33 ± 0.17 g
PWT, g Mean ± SEM [2]: 1.34 ± 0.12 g

CC1(C)O[C@@H]2[C@@H](CO[C@@]3(COS(N)(=O)=O)OC(C)(C)O[C@@H]23)O1 [Topiramate, topiramate]
PWT, g Mean ± SEM [11, 15]: 2.40 ± 0.24 g
PWT, g Mean ± SEM ([11]; Day 12 (pre-treatment)): 0.60 ± 0.00 g
PWT, g Mean ± SEM [11, 16]: 1.76 ± 0.11 g
PWT, g Mean ± SEM [2]: 1.40 ± 0.14 g

CCN(CC)CC(=O)Nc1c(C)cccc1C [lidocaine]
PWT, gm Mean ± SEM ([1]; 0.7% sulindac hydrogel 3 times a day for 1 week, 5% lidocaine cream once 30 min before, pregabalin 10 mg/kg orally once 1 h before): 26.0 ± 1.8 gm
PWT, g Mean ± SEM ([8]; day 14, PS hydrogel 5% or 0.7% sulindac 3 times a day, 5% lidocaine cream once 30 min before, pregabalin 10 mg/kg orally once 1 h before): 1.48 ± 0.12 g

O=C1[O][Pt]2([NH][C@@H]3CCCC[C@H]3[NH]2)[O]C1=O [oxaliplatin, reference compound]
reduction of allodynia score during oxaliplatin administration [12]: 65% and 56%

CC(C)C[C@H](CN)CC(=O)O [pregabalin, reference compound]
PWT, g Mean ± SEM [13]: 1.1 ± 0.10 g
PWT, g Mean ± SEM ([13]; listed as Pregabalin): 1.1 ± 0.10 g

CC[C@]1(O)C[C@H]2CN(CCc3c([nH]c4ccccc34)[C@@](C(=O)OC)(c3cc4c(cc3OC)N(C=O)[C@H]3[C@@](O)(C(=O)OC)[C@H](OC(C)=O)[C@]5(CC)C=CCN6CC[C@]43[C@@H]65)C2)C1 [vincristine]
mechanical allodynia score, mean±SEM ([14]; day 0): 0.7 ± 0.07 g
reduction of mechanical allodynia score by vincristine ([14]; day 0 vs day -7, three groups, cumulative 3 mg/kg i.p.): 61%-65%
mechanical allodynia score, mean±SEM ([14]; day 16): 0.8 ± 0.09 g
